This experiment can be described thus: Ability to inhibit glycinamide ribonucleotide transformylase (GAR-Tfase) in vitro, using hog liver with (6R)-10-formyl-FH4 as cofactor.

Broadly, the IC50 is the concentration that inhibits the measured activity by half. `Nc1nc(N)c(CCCNc2cnc(C(=O)N[C@H](CCC(=O)O)C(=O)O)s2)c(=O)[nH]1` [(S)-2-({5-[3-(2,4-Diamino-6-oxo-1,6-dihydro-pyrimidin-5-yl)-propylamino]-thiazole-2-carbonyl}-amino)-pentanedioic acid] gave an IC50 of 140 nM.
As to `Nc1nc(N)c(CCCNc2ccc(C(=O)N[C@H](CCC(=O)O)C(=O)O)s2)c(=O)[nH]1` [(S)-2-({5-[3-(2,4-Diamino-6-oxo-1,6-dihydro-pyrimidin-5-yl)-propylamino]-thiophene-2-carbonyl}-amino)-pentanedioic acid], the IC50 turned out to be 2060 nM.

Source of the values: BindingDB's records for doi:10.1021/jm00039a025 (Wellcome Research Laboratories, 1994).
